# Columns and labels:
# [1] = Storage stability of analytes in mouse plasma (method validation); details: for Freeze and thaw stability at -80 °C/ room temperature, Bias / Freeze and thaw stability at -80 °C/ room temperature, Measured concentration / Long term stability at -80 °C (30 days), Bias / Short term stability at room temperature (6 h), Bias / Long term stability at -80 °C (30 days), Measured concentration / Short term stability at room temperature (6 h), Measured concentration: mouse plasma; for Freeze and thaw stability at -80 °C/ room temperature, Bias / Freeze and thaw stability at -80 °C/ room temperature, Measured concentration: 1 cycle; for Freeze and thaw stability at -80 °C/ room temperature, Bias / Long term stability at -80 °C (30 days), Bias / Short term stability at room temperature (6 h), Bias / Auto-sampler stability at 2-8 °C, Bias: n = 6; for Freeze and thaw stability at -80 °C/ room temperature, Measured concentration / Long term stability at -80 °C (30 days), Measured concentration / Short term stability at room temperature (6 h), Measured concentration / Auto-sampler stability at 2-8 °C, Measured concentration: n = 6, mean ± SD; for Auto-sampler stability at 2-8 °C, Bias / Auto-sampler stability at 2-8 °C, Measured concentration: processed mouse plasma, 12 h
# Protocol: (§3) By investigating low- and high-concentration stability QCs in six replicates at different storage conditions, autosampler, short-term (bench-top), freeze and thaw, and long-term stability evaluations were conducted.
# [2] = Storage stability of analytes in mouse liver homogenate (method validation)
# Protocol: Tumor-bearing mouse tumor/individual tissue samples were homogenized by adding PBS at a ratio of 1:5 (e.g., 1 g of tumor sample to 5 mL of PBS) to make a tumor/tissue homogenate. A quantity of 60 µL of homogenate was taken as a tumor/tissue sample and processed in the same manner as the mouse plasma sample, with the exception of 240 µL of IS working solution used for protein precipitation.
# as §3
# [3] = Tissue-distribution study after i.v. legubicin or doxorubicin; details: after i.v. legubicin 9.05 µmol/kg, HT1080 tumor-bearing mice
# Protocol: (§1) The mixture was vortexed for 3 min, and then centrifuged at 22,000× g at 4 °C for 10 min. A final analysis was conducted by injecting 5 µL supernatant into a UHPLC-MS/MS system. Mouse plasma samples were treated in the same way as the rat plasma samples, except for protein precipitation, with 200 µL of 5 pmol/mL IS working solution and injection of 2 µL of supernatant for analysis.
# Each legubicin administration group corresponded to a sampling time-point (4, 16, 32, 48, 96, 168, and 240 h after administration). […] Blood samples and tumor, heart, and kidney tissues were collected at the sampling time points (4, 16, 32, 48, 96, 168, and 240 h after dosing). In addition, liver, spleen, lung, stomach, small intestine, gonads, brain, skeletal muscle, and skin were also collected at 4, 32, 96, and 240 h post-dose time points in the legubicin administration group. All whole-blood samples were processed according to the same processing steps, described above, for rat whole-blood samples.
# (§2) The analysis software (Version 1.5.2, AB Sciex, Vaughan, ON, Canada) was applied to data acquisition and quantification. Pharmacokinetic parameters were calculated with WinNonlin Phoenix (v6.4, Pharsight, Mountain View, CA, USA) with the noncompartmental method, and were presented as mean ± SD (%CV). The “Best fit” strategy in the WinNonlin Phoenix was used for the calculation of elimination half-life and the selection of the elimination phase. Graphs were plotted by GraphPad Software (GraphPad Prism 8.0.2; GraphPad Software, Inc., La Jolla, CA, USA).
# [4] = Single-dose pharmacokinetic study of legubicin, i.v.; details: free metabolite in plasma; for AUClast / Cmax: n = 3, mean ± SD; for Tmax: n = 3, median [min, max]
# Protocol: The pharmacokinetic parameters are outlined in Table 5. […] A power-function model was used to fit the relationship between exposure level (Cmax, AUClast, and AUCINF_obs) parameters and dose, and the power exponent (parameter β) and its 90% confidence interval were obtained (see Table S5).
# as §1
# (1) For the hydrolysis process, an aliquot of 25 µL of rat/mouse plasma was transferred into an Eppendorf tube, and then 50 µL of enzyme digestion buffer and 25 µL of legumain enzyme were placed into the tube. The mixture was vortexed for 1 min, and then incubated in a water bath for 24 h at 37 °C for enzymatic hydrolysis. (2) For the protein precipitation process, 1000 µL of IS working solution (5 pmol/mL and 50 pmol/mL for rat and mouse plasmas, respectively) was added to the enzymatic-hydrolysis solution. Then, the sample was vortexed for 3 min and centrifuged at 22,000× g for 10 min at 4 °C. Analyses were performed on the 3 µL aliquot of the solution used in the UHPLC-MS/MS system.
# Twenty-four rats, inclusive of both sexes, were randomly distributed into four groups. Groups 1, 2, and 3 were single-dose groups, among which the subjects received legubicin via tail intravenous injection (a dose of 1.5, 5, or 15 mg/kg; i.e., 1.36, 4.52, or 13.6 µmol/kg). The fourth group was utilized for a multi-dose study at 5 mg/kg (once-weekly for 4 consecutive weeks). Blood samples of approximately 150 µL were taken from the jugular vein at 0 h (pre-dosing) and at 0.167 h (10 min), 0.5 h, 1 h, 2 h, 4 h, 8 h, 24 h, 48 h, and 72 h post-dosing in the single-dose groups. Samples were also obtained on days 1 and 22 for the multiple-dose group in the same way as for the single-dose groups. However, on days 8 and 15, samples were taken only before and 10 min after administration. The K2EDTA quantities containing blood samples were centrifuged (4 °C, 4000 rpm, 10 min) to collect plasma samples, which were separated into EP tubes and kept at −80 °C until further assay.
# as §2
# [5] = high QC (Leu-DOX 2400, DOX 800 pmol/mL)
# [6] = high QC (nominal Leu-DOX 2400, DOX 800 pmol/mL)
# [7] = low QC (Leu-DOX 9, DOX 3 pmol/mL)
# [8] = low QC (nominal Leu-DOX 9, DOX 3 pmol/mL)
# [9] = high QC (Leu-DOX 2400, DOX 800 pmol/mL, conjugate 80 nmol/mL)
# [10] = low QC (Leu-DOX 9, DOX 3 pmol/mL, conjugate 0.2 nmol/mL)
# [11] = female SD rats, single i.v. legubicin 1.5 mg/kg
# [12] = female SD rats, single i.v. legubicin 5 mg/kg
# [13] = female SD rats, single i.v. legubicin 15 mg/kg
# [14] = male SD rats, single i.v. legubicin 1.5 mg/kg
compound,measurement,setting,value
"COc1cccc2c1C(=O)c1c(O)c3c(c(O)c1C2=O)C[C@@](O)(C(=O)CO)C[C@@H]3O[C@H]1C[C@H](NC(=O)[C@@H](N)CC(C)C)[C@H](O)[C@H](C)O1 [Leu-DOX, N-L-leucyl-doxorubicin]","Freeze and thaw stability at -80 °C/ room temperature, Bias",[1]; [5],-1.8%
same,"Freeze and thaw stability at -80 °C/ room temperature, Measured concentration",[1]; [6],2356.67 ± 81.65 pmol/mL
same,"Freeze and thaw stability at -80 °C/ room temperature, Bias",[1]; [7],-1.4%
same,"Freeze and thaw stability at -80 °C/ room temperature, Measured concentration",[1]; [8],8.87 ± 0.24 pmol/mL
same,"Long term stability at -80 °C (30 days), Bias",[1]; [9],9.9%
same,"Short term stability at room temperature (6 h), Bias",[1]; [9],-5.3%
same,"Long term stability at -80 °C (30 days), Measured concentration",[1]; [6],2636.67 ± 103.47 pmol/mL
same,"Short term stability at room temperature (6 h), Measured concentration",[1]; [6],2275.00 ± 81.67 pmol/mL
same,"Long term stability at -80 °C (30 days), Bias",[1]; [10],0.9%
same,"Short term stability at room temperature (6 h), Bias",[1]; [10],-3.2%
same,"Long term stability at -80 °C (30 days), Measured concentration",[1]; [8],9.08 ± 0.43 pmol/mL
same,"Short term stability at room temperature (6 h), Measured concentration",[1]; [8],8.71 ± 0.32 pmol/mL
same,"Auto-sampler stability at 2-8 °C, Bias",[1]; [5],-2.4%
same,"Auto-sampler stability at 2-8 °C, Measured concentration",[1]; [6],2341.67 ± 132.43 pmol/mL
same,"Auto-sampler stability at 2-8 °C, Bias",[1]; [7],-3.1%
same,"Auto-sampler stability at 2-8 °C, Measured concentration",[1]; [8],8.72 ± 0.62 pmol/mL
same,"Freeze and thaw stability at -80 °C/ room temperature, Bias","[2]; mouse liver homogenate, 3 cycles, low QC (Leu-DOX 27, DOX 10 pmol/mL), n = 6",0.9%
same,"Freeze and thaw stability at -80 °C/ room temperature, Measured concentration","[2]; mouse liver homogenate, 3 cycles, low QC (nominal Leu-DOX 27, DOX 10 pmol/mL), n = 6, mean ± SD",27.23 ± 1.55 pmol/mL
same,"Short term stability at room temperature (6 h), Bias","[2]; mouse liver homogenate, low QC (Leu-DOX 27, DOX 10 pmol/mL), n = 6",-4.8%
same,"Short term stability at room temperature (6 h), Measured concentration","[2]; mouse liver homogenate, low QC (nominal Leu-DOX 27, DOX 10 pmol/mL), n = 6, mean ± SD",25.72 ± 1.45 pmol/mL
same,"Auto-sampler stability at 2-8 °C, Bias","[2]; processed mouse liver homogenate, 48h, low QC (Leu-DOX 27, DOX 10 pmol/mL), n = 6",3.6%
same,"Auto-sampler stability at 2-8 °C, Measured concentration","[2]; processed mouse liver homogenate, 48h, low QC (nominal Leu-DOX 27, DOX 10 pmol/mL), n = 6, mean ± SD",27.97 ± 3.06 pmol/mL
same,brain penetration of the metabolite,[3],neither the metabolite doxorubicin nor free Leu-Dox permeated the brain
same,tissue concentration rank order of the metabolite,[3]; n = 6,"highest concentration in the liver, followed by the spleen, small intestine, kidney, tumor, lung, skin, gonads, stomach, plasma, skeletal muscle, and heart"
same,AUClast,[4]; [11],0.00644 ± 0.00202 µM·h
same,Cmax,[4]; [11],21.5 ± 7.78 nM
same,Tmax,[4]; [11],"0.167 [0.167, 0.167] h"
same,AUClast,[4]; [12],0.052 ± 0.0162 µM·h
same,Cmax,[4]; [12],72.1 ± 16.0 nM
same,Tmax,[4]; [12],"0.167 [0.167, 0.167] h"
same,AUClast,[4]; [13],0.336 ± 0.0625 µM·h
same,Cmax,[4]; [13],373 ± 63.2 nM
same,Tmax,[4]; [13],"0.167 [0.167, 0.167] h"
same,AUClast,[4]; [14],0.0112 ± 0.0021 µM·h
same,Cmax,[4]; [14],29.5 ± 2.74 nM
